Patent US20240325553A1, “CYTOSTATIC CONJUGATES WITH INTEGRIN LIGANDS” (priority 2018, published 2024)
Like-named read-outs stand apart in the source and are kept apart here.

What was measured:
[1] = Stability in human plasma; format: in vitro ADME; details: 37° C.
Experimental: 1 mg of the test compound was solved in 0.5 ml acetonitrile/dimethylsulfoxide 1:1. For complete dissolution the HPLC vial was shaken and sonicated. While vortexing 20 μl of this solution were added to 1 ml 37° C. warm plasma. After 0.17, 0.5, 1, 1.5, 2 and 4 hours the enzymatic reaction was stopped by adding 100 μl of the compound plasma solution to a vial containing 300 μl acetonitrile/buffer pH3 (80:20) at RT. The mixture was centrifuged at 5000 rpm for 10 minutes. The supernatant was analyzed by HPLC to determine the amount of the test compound and up to two byproducts. t(0) values result from a processed sample immediately taken after vortexing with plasma at RT. The peak areas (in percentage) were used for quantification.

[2] = system: NCI-H1975; assay: Cytotoxicity in vitro against NCI-H1975; format: cell-based
Excerpt: (§1) The cytotoxic activity of 7-Ethyl camptothecin is not negatively affected when tumor cells NCI-H1975 was transfected with drug transporters p-Glycoprotein (P-gp) and breast cancer resistant protein (BCRP) which is in strong contrast to SN38.

[3] = system: BCRP; assay: Cytotoxicity in vitro against NCI-H1975 transfected with BCRP; format: cell-based; details: human
Excerpt: as §1

[4] = Pharmacokinetics: tumor and plasma levels in 786-O tumor bearing mice; format: in vivo, NMRI nu/nu mice; details: for Tumor/Plasma enrichment factor (ratio/ratio): relative to direct administration of 7-ethyl camptothecin
Experimental: (§2) Tumor and plasma samples were collected at different time points and the levels of intact conjugate and of the toxophore 7-ethyl-camptothecin cleaved from the conjugate were determined.
For comparison, 1 mg/kg of 7-ethyl camptothecin was dissolved in a mixture of 5% aqueous dextrose/solutol/DMSO 85/10/5 and administered iv to female. 786-O tumor bearing NMRI nu/nu mice. Again tumor and plasma samples were collected at different time points and the levels of 7-ethyl-camptothecin were determined.
as §2

[5] = Caco-2 flux assay for cellular permeability; format: in vitro ADME; details: human
Experimental: (§3) The cell permeability of a substance can be investigated by means of in vitro testing in a flux assay using Caco-2 cells [M. D. Troutman and D. R. Thakker, Pharm. Res. 20 (8), 1210-1224 (2003)]. For this purpose. the cells were cultured for 15-16 days on 24-well filter plates. […] The samples were separated by HPLC (Agilent 1200. Böblingen. Germany) using reverse phase columns. […] 1716-1725 (2003)]. A substance was classified as actively transported when the ratio of Papp (B-A) to Papp (A-B) (efflux ratio) was >2 or <0.5.

[6] = system: P-gp; assay: Cytotoxicity in vitro against NCI-H1975 transfected with P-gp; format: cell-based; details: human
Excerpt: as §1

[7] = target: P-gp (ABCB1) (Homo sapiens, UniProt P08183); assay: in vitro
Experimental: Many tumor cells express transporter proteins for drugs, and this frequently accompanies the development of resistance towards cytostatics.
The substrate properties of a substance for P-gp (ABCB1) were determined by means of a flux assay using LLC-PK1 cells which overexpress P-gp (L-MDR1 cells) [A. H. Schinkel et al., J. Clin. Invest. 96. 1698-1705 (1995)]. For this purpose. the LLC-PK1 cells or L-MDR1 cells were cultured on 96-well filter plates for 3-4 days. For determination of the permeation, the respective test substance, alone or in the presence of an inhibitor (such as ivermectin or verapamil, for example), was applied in a HEPES buffer to the cells either apically (A) or basally (B) and incubated for 2 hours. After ([…] and after 2 hours, samples were taken from the cis and trans compartments. The samples were separated by HPLC using reverse phase columns. The HPLC system was coupled via a Turbo Ion Spray Interface to a Triple Quadropol mass spectrometer API 3000 (Applied Biosystems Applera, Darmstadt, Germany). The permeability was evaluated on the basis of a Papp value, which was calculated using the formula published by Schwab et al. [D. Schwab et al. . . . J. Med. Chem. 46, 1716-1725 (2003)]. A substance was classified as P-gp substrate when the efflux ratio of Papp (B-A) to Papp (A-B) was >2.

[8] = target: T1, αvβ3 receptor (Homo sapiens, UniProt P05106+P06756); assay: αvβ3 binding test (echistatin SPA)
T1 construct: αvβ3 from human A375 cells was purified analogously to a procedure described by Wong et al; endogenous in cells; host or cells: human A375 cells (receptor purified from the cells)
Experimental: αvβ3 from human A375 cells was purified analogously to a procedure described by Wong et al. in Molecular Pharmacology 50, 529-537 (1996). In each case, 10 μL of αvβ3 (5 ng) in TBS PH 7.6, 2 mM CaCl2. 1 mM MgCl2. 1% n-octylglucopyranoside (Sigma): 10 μL of test substance in TBS pH 7.6. 0.1% DMSO and 45 μL of TBS pH 7.6. 2 mM CaCl2, 1 mM MgCl2, 1 mM MnCl2 were incubated at room temperature for 1 h. In each case, 25 μL of WGA SPA beads (Amersham, 4 mg/ml) and 10 μL of echistatin (0.1 μCi, Amersham, chloramine-T labelled) were then added. After 16 h at room temperature, the samples were measured in a scintillation measuring apparatus (Wallac 1450).

[9] = system: HT29 cell line; assay: Cytotoxicity in vitro (MTT) in the presence and absence of elastase, HT29; format: cell-based; details: 72 h
Experimental: (§4) Cultivation of cells was performed according to standard procedures with the media recommended by the provider. The cells in a total volume of 100 μL were seeded in a 96-well plate with white bottom (#3610). After a 24 h incubation period at 37° C. and 5% CO2, the medium was changed by adding 90 μL fresh medium. The treatment starts by adding the test compound to the cells in 10 μl of culture medium. Concentrations from 10^−5 M to 10^−13 M in triplicates were chosen followed by an incubation at 37° C. and 5% carbon dioxide. One set of samples were only treated with the test compound whereas to an otherwise identically treated second set of samples also 10 nM elastase was pipetted. After 72 h. the proliferation is detected using the MTT assay (ATCC). At the end of the incubation period the MTT reagent is added to all samples for 4 h, followed by lysis of the cells overnight by addition of the detergent. The dye formed was detected at 570 nm. The proliferation of cells which were not treated with test substance but were otherwise identically treated was defined as the 100% value. (FIG. 1 and table 4).

[10] = system: 786-O cell line; assay: Cytotoxicity in vitro (MTT) in the presence and absence of elastase, 786-O; format: cell-based; details: 72 h, MTT
Experimental: as §4

[11] = system: NCI-H1975-BCRP; assay: Cytotoxicity in vitro against NCI-H1975 transfected with BCRP; format: cell-based
Excerpt: as §1

[12] = system: Caco-2 cells; assay: Caco-2 flux assay for cellular permeability; format: in vitro ADME
Experimental: as §3

[13] = system: NCI-H1975-P-gp; assay: Cytotoxicity in vitro against NCI-H1975 transfected with P-gp; format: cell-based
Excerpt: as §1

[14] = Caco-2, Papp (B-A) to Papp (A-B)

P-gp (ABCB1), sequence (P08183 whole entry): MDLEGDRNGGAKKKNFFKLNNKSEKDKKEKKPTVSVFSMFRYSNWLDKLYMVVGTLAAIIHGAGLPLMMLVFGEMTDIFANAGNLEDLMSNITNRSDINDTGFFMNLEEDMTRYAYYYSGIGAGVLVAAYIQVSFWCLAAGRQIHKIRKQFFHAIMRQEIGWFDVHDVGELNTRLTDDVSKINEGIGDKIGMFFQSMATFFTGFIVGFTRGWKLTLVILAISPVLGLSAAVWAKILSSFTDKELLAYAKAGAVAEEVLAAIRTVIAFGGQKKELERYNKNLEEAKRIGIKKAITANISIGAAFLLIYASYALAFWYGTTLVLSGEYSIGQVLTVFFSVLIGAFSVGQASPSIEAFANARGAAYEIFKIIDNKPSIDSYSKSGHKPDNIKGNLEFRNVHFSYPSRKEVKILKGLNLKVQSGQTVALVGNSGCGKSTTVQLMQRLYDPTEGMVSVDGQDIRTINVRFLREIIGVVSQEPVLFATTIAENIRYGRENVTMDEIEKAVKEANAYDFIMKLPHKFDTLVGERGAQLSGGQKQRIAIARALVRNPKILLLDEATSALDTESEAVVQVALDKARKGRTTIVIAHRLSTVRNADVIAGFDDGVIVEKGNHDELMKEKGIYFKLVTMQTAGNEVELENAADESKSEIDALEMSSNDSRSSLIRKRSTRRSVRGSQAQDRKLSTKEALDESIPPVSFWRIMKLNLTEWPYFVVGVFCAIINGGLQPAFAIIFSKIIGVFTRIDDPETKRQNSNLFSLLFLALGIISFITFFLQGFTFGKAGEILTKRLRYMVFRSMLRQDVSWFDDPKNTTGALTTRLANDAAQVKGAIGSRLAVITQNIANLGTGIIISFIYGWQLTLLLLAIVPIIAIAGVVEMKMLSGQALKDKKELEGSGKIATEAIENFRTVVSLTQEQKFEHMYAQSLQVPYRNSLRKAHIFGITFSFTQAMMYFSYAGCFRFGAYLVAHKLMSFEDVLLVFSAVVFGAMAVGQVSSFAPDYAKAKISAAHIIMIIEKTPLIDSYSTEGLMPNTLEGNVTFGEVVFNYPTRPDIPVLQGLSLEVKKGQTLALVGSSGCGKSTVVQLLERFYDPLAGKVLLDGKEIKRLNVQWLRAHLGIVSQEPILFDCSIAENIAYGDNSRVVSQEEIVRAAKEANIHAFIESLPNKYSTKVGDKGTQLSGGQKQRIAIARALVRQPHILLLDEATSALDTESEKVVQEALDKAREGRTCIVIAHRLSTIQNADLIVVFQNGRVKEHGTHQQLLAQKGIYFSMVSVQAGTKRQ
T1 sequence (P06756 31-889 limits assumed): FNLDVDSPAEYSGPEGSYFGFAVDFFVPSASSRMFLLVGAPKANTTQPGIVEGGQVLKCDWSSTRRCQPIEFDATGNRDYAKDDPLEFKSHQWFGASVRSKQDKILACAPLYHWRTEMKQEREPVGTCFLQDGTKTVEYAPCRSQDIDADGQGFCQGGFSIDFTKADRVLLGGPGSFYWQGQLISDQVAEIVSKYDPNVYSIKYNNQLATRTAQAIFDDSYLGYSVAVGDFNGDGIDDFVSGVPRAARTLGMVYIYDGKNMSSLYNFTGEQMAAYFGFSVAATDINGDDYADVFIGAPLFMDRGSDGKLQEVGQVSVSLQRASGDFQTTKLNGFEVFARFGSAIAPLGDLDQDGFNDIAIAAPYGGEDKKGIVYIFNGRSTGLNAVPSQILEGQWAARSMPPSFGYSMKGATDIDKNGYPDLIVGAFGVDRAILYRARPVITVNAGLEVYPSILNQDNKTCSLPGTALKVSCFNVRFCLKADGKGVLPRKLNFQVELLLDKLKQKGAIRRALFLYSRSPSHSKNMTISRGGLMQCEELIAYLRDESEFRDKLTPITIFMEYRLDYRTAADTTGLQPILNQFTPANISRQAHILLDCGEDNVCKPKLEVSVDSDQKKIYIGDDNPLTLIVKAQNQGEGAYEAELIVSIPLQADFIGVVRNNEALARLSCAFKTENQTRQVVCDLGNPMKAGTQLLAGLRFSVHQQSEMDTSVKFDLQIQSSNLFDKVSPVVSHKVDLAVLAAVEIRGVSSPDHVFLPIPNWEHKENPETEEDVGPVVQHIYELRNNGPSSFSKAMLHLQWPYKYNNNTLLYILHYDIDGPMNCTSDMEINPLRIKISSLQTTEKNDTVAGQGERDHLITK
T1 sequence (P06756 891-1048 partner limits assumed): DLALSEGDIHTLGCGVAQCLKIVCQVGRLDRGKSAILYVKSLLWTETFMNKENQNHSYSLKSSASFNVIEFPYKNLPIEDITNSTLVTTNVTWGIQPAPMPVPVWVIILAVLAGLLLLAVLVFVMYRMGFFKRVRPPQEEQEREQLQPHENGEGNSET
T1 sequence (P05106 27-788): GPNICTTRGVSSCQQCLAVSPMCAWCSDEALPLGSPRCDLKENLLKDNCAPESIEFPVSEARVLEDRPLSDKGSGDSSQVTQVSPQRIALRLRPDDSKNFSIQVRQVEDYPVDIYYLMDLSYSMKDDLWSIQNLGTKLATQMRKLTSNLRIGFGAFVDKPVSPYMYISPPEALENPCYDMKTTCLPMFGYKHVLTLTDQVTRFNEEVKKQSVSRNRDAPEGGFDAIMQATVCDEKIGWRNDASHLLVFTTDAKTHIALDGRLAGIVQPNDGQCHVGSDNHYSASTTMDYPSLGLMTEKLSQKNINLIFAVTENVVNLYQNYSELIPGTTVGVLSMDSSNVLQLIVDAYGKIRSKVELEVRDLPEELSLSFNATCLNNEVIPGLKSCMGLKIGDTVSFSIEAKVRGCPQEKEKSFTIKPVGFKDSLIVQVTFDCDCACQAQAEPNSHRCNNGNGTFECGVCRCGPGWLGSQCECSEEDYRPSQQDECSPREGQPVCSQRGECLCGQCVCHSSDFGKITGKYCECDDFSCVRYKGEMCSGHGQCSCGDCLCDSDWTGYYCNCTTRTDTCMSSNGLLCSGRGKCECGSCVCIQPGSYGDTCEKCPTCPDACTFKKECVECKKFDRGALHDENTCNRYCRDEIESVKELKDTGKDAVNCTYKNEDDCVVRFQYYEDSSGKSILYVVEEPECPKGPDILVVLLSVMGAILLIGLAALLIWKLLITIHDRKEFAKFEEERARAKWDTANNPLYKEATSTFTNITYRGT

For `CCc1c2c(nc3ccccc13)-c1cc3c(c(=O)n1C2)COC(=O)[C@]3(O)CC` [7-Ethyl-camptothecin, (4S)-4,11-diethyl-4-hydroxy-1H-pyrano[3′,4′:6,7]indolizino[1,2-b]quinoline-3,14(4 H,12H)-dione], the “stable in human plasma for” value [1] was “at least 4 hours”, the IC50 ([2]; Homo sapiens, NCI-H1975) was 0.019 µM and the IC50 [3] was 0.027 µM. The Kp ([4]; mouse, tumor and plasma, 1 mg/kg, iv, female 786-O tumor bearing NMRI nu/nu mice, read-out: Tumor/Plasma ratio of 7-ethyl camptothecin) was 0.6, the “Tumor/Plasma enrichment factor (ratio/ratio)” value [4] was 1 and the Papp A→B at 2 h ([5]; Caco-2, 2 hours incubation) was 17.1 ×10⁻⁶ cm/s. For the same compound, the efflux ratio at 2 h [5, 14] was 1, the IC50 [6] was 0.034 µM and the Papp A→B at 2 h ([7]; pig, LLC-PK1) was 19.6 ×10⁻⁶ cm/s. For the same compound, the efflux ratio at 2 h ([7]; pig, LLC-PK1) was 0.6.
In the case of `CCCNC(=O)Nc1cccc(S(=O)(=O)Nc2cccc([C@H](CC(=O)[O-])NC(=O)Nc3ccc(NC(=O)NCCOCCOCCOCCC(=O)N[C@@H](CC(=O)[O-])C(=O)N4CCC[C@H]4C(=O)N[C@H](C(=O)O[C@]4(CC)C(=O)OCc5c4cc4n(c5=O)Cc5c-4nc4ccccc4c5CC)C(C)C)cc3)c2)c1.[Na+].[Na+]` [Example 2, disodium (4S)-4,11-diethyl-3,14-dioxo-3,4,12,14-tetrahydro-1H-pyrano[3′,4′: 6,7]indolizino [1,2-b]quinolin-4-yl 1-{(2S)-2-(carboxylatomethyl)-17-[4-({[(1S)-2-carboxylato-1-{3-[({3-[(propyl-carbamoyl)amino]phenyl}sulfonyl)amino]phenyl}ethyl]carbamoyl}amino)anilino]-4,17-dioxo-7,10,13-trioxa-3,16-diazaheptadecan-1-oyl}-L-prolyl-L-valinate], the IC50 [8] is reported as 0.7 µM, the IC50 ([9]; 10 nM elastase, read-out: HT29 cell line IC50 w elastase) is reported as 0.032 µM and the IC50 ([9]; without elastase, read-out: HT29 cell line IC50 w/o elastase) is reported as > 0.5 µM. For the same compound, the “Tumor/Plasma enrichment factor (ratio/ratio)” value [4] was 2, the IC50 ([10]; 10 nM elastase, read-out: 786-O cell line IC50 w elastase) was 0.00017 µM and the IC50 ([10]; without elastase, read-out: 786-O cell line IC50 w/o elastase) was 0.268 µM.
For `CCc1c2c(nc3ccc(O)cc13)-c1cc3c(c(=O)n1C2)COC(=O)[C@]3(O)CC` [SN38], the IC50 [2] was 0.045 µM, the IC50 [11] was 0.512 µM and the “permeability Papp A->B” value ([12]; Caco-2, 2 hours incubation) was 0.8 ×10⁻⁶ cm/s. For the same compound, the efflux ratio [12, 14] was 36, the efflux ratio ([12]; Caco-2, new data for SN38) was 9 and the “permeability Papp A->B” value ([12]; Caco-2, new data for SN38) was 2 ×10⁻⁶ cm/s. The IC50 [13] was 0.141 µM, the “permeability Papp A->B” value ([7]; L-MDR1 cells (LLC-PK1 overexpressing P-gp)) was 1 ×10⁻⁶ cm/s and the efflux ratio ([7]; L-MDR1 cells, Papp (B-A) to Papp (A-B)) was 16.
For `CC[C@@]1(O)C(=O)OCc2c1cc1n(c2=O)Cc2cc3ccccc3nc2-1` [camptothecin], the “extent of degradation in human plasma” value ([1]; 4 hours) was “about 50%”.
